Measured values reported in patent US5550212A, “Analogues of hGH-RH(1-29)NH2 having antagonistic activity” (The Administrators of the Tulane Educational Fund, priority 1993, dated 1996).
Starred links: 1 amine or outer side, 2 acyl side, 3 side chain; linkers in the order of their positions; H or OH if unused. Non-standard residues stand in square brackets, D forms with d. Residues, ends and D or L forms follow the SMILES beside them. *: point of attachment. Acetyl(1-naphthyl) = O=C(Cc1cccc2ccccc12)*; Tpi = O=C(O)[C@@H]1Cc2c([nH]c3ccccc23)CN1; Phe(4-Cl) = N[C@@H](Cc1ccc(Cl)cc1)C(=O)O; Glutaryl = O=C(CCCC(=O)[*:2])[*:1]; Isobutyryl = CC(C)C(=O)*; Nle = CCCC[C@H](N)C(=O)O; Abu = CC[C@H](N)C(=O)O; Aib = CC(C)(N)C(=O)O; X2 = O=C(CI)*

Target: T1, rat pituitary GH-RH receptors (Rattus norvegicus, UniProt Q02644)
T1 construct: from tissue; host or cells: rat anterior pituitary (male Sprague-Dawley), crude membranes
T1 sequence (Q02644 23-464): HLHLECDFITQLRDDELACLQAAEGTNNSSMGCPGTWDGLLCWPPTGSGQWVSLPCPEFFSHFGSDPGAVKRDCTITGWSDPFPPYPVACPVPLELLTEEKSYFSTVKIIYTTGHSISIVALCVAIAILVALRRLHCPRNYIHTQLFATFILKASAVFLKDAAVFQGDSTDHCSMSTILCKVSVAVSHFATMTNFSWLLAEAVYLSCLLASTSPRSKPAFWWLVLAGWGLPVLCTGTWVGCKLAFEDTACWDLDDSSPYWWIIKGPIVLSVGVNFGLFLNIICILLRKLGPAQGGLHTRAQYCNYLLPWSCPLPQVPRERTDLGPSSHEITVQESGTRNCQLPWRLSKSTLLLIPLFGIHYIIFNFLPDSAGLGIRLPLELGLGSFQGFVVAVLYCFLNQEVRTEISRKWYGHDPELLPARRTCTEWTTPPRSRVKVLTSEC
Test: GH-RH binding assay, competitive binding on rat anterior pituitary membrane homogenates
Details: competition with labelled [His1,Nle27]hGH-RH(1-32)NH2
Method: GH-RH Binding Assay. A sensitive radioreceptor binding assay was developed to determine the binding characteristics of the antagonists of GH-RH (G. Halmos, A. V. Schally et al., Receptor 3, 87-97, 1993), hereby incorporated by reference. The assay is based on binding of labelled [His^1,Nle^27 ]hGH-RH(1-32)NH2 to rat anterior pituitary membrane homogenates. Iodinated derivatives of [His^1,Nle^27 ]hGH-RH(1-32)NH2 are prepared by the chloramine-T method (F. C. Greenwood et al., Biochemistry 89:114-123, 1963), hereby incorporated by reference. Pituitaries from male Sprague-Dawley rats (250-300 g) are used to prepare crude membranes. For saturation binding analyses, membrane homogenates are incubated with at least 6 concentrations of [His^1,^25 I-Tyr^10,Nle^27 ]hGH-RH(1-32)NH2, ranging from 0.005 to 0.35 nM in the presence or absence of excess unlabelled peptide (1 μM). The pellet is counted for radioactivity in a y-counter. The affinities of the antagonist peptides tested to rat pituitary GH-RH receptors are determined in competitive binding experiments. The final binding affinities are estimated by Ki (dissociation constant of the inhibitor-receptor complex) and are determined by the Ligand PC computer program of Munson and Rodbard as modified by McPherson. Relative affinities compared to [Ac-Tyr^1,D-Arg^2 ]hGH-RH(1-29)NH2, the Standard antagonist, are calculated as the ratio of Ki of the tested GH-RH antagonist to the Ki of the Standard antagonist.

Row | Ki | SMILES
1 | 0.04 ± 0.01 nM | CCCC[C@H](NC(=O)[C@@H](NC(=O)[C@H](CC(=O)O)NC(=O)[C@H](CCC(N)=O)NC(=O)[C@H](CC(C)C)NC(=O)[C@H](CC(C)C)NC(=O)[C@H](CCCCN)NC(=O)[C@H](CCCNC(=N)N)NC(=O)[C@H](C)NC(=O)[C@H](CO)NC(=O)[C@H](CC(C)C)NC(=O)[C@H](CCC(N)=O)NC(=O)[C@H](CC)NC(=O)[C@H](CC(C)C)NC(=O)[C@@H](NC(=O)[C@H](CCCCN)NC(=O)[C@H](CCCNC(=N)N)NC(=O)[C@H](Cc1ccc(O)cc1)NC(=O)[C@H](CO)NC(=O)[C@H](CC(N)=O)NC(=O)[C@@H](NC(=O)[C@H](Cc1ccc(Cl)cc1)NC(=O)[C@@H](NC(=O)[C@H](C)NC(=O)[C@H](CC(=O)O)NC(=O)[C@@H](CCCNC(=N)N)NC(=O)[C@H](Cc1ccc(O)cc1)NC(=O)Cc1cccc2ccccc12)[C@@H](C)CC)[C@@H](C)O)C(C)C)[C@@H](C)CC)C(=O)N[C@@H](CO)C(=O)N[C@@H](CCCNC(=N)N)C(N)=O [Peptide 1, [Nac^0,D-Arg^2, Phe(pCl)^6,Abu^15, Nle^27]hGH-RH(1-29)NH2] ({Acetyl(1-naphthyl)}-Y[dR]DAI[Phe(4-Cl)]TNSYRKVL[Abu]QLSARKLLQDI[Nle]SR-NH2)
2 | 0.05 ± 0.01 nM | CCCC[C@H](NC(=O)[C@@H](NC(=O)[C@H](CC(=O)O)NC(=O)[C@H](CCC(N)=O)NC(=O)[C@H](CC(C)C)NC(=O)[C@H](CC(C)C)NC(=O)[C@H](CCCCN)NC(=O)[C@H](CCCNC(=N)N)NC(=O)[C@H](C)NC(=O)[C@H](CO)NC(=O)[C@H](CC(C)C)NC(=O)[C@H](CCC(N)=O)NC(=O)[C@H](CC)NC(=O)[C@H](CC(C)C)NC(=O)[C@@H](NC(=O)[C@H](CCCCN)NC(=O)[C@H](CCCNC(=N)N)NC(=O)[C@H](Cc1ccc(O)cc1)NC(=O)[C@H](CO)NC(=O)[C@H](CC(N)=O)NC(=O)[C@@H](NC(=O)[C@H](Cc1ccc(Cl)cc1)NC(=O)[C@@H](NC(=O)[C@H](C)NC(=O)[C@H](CC(=O)O)NC(=O)[C@@H](CCCNC(=N)N)NC(=O)[C@H](Cc1c[nH]cn1)NC(=O)Cc1cccc2ccccc12)[C@@H](C)CC)[C@@H](C)O)C(C)C)[C@@H](C)CC)C(=O)N[C@@H](CO)C(=O)N[C@@H](CCCNC(=N)N)C(N)=O [Peptide 5, [Nac^0 -His^1,D-Arg^2,Phe(pCl)^6,Abu^15, Nle^27]hGH-RH(1-29)NH2] ({Acetyl(1-naphthyl)}-H[dR]DAI[Phe(4-Cl)]TNSYRKVL[Abu]QLSARKLLQDI[Nle]SR-NH2)
3 | 1.35 ± 0.02 nM | CCCC[C@H](NC(=O)[C@@H](NC(=O)[C@H](CC(=O)O)NC(=O)[C@H](CCC(N)=O)NC(=O)[C@H](CC(C)C)NC(=O)[C@H](CC(C)C)NC(=O)[C@H](CCCCN)NC(=O)[C@H](CCCNC(=N)N)NC(=O)[C@H](C)NC(=O)[C@H](CO)NC(=O)[C@H](CC(C)C)NC(=O)[C@H](CCC(N)=O)NC(=O)[C@H](CC)NC(=O)[C@H](CC(C)C)NC(=O)[C@@H](NC(=O)[C@H](CCCCN)NC(=O)[C@H](CCCNC(=N)N)NC(=O)[C@H](Cc1ccc(O)cc1)NC(=O)[C@H](CO)NC(=O)[C@H](CC(N)=O)NC(=O)[C@@H](NC(=O)[C@H](Cc1ccc(Cl)cc1)NC(=O)[C@@H](NC(=O)[C@H](C)NC(=O)[C@H](CC(=O)O)NC(=O)[C@@H](CCCNC(=N)N)NC(=O)[C@H](CCC(=O)O)NC(=O)C(C)C)[C@@H](C)CC)[C@@H](C)O)C(C)C)[C@@H](C)CC)C(=O)N[C@@H](CO)C(=O)N[C@@H](CCCNC(=N)N)C(N)=O [Peptide 7] (Isobutyryl-E[dR]DAI[Phe(4-Cl)]TNSYRKVL[Abu]QLSARKLLQDI[Nle]SR-NH2)
4 | 0.91 ± 0.01 nM | CCCC[C@H](NC(=O)[C@@H](NC(=O)[C@H](CC(=O)O)NC(=O)[C@H](CCC(N)=O)NC(=O)[C@H](CC(C)C)NC(=O)[C@H](CC(C)C)NC(=O)[C@H](CCCCN)NC(=O)[C@H](CCCNC(=N)N)NC(=O)[C@H](C)NC(=O)[C@H](CO)NC(=O)[C@H](CC(C)C)NC(=O)[C@H](CCC(N)=O)NC(=O)[C@H](CC)NC(=O)[C@H](CC(C)C)NC(=O)[C@@H](NC(=O)[C@H](CCCCN)NC(=O)[C@H](CCCNC(=N)N)NC(=O)[C@H](Cc1ccc(O)cc1)NC(=O)[C@H](CO)NC(=O)[C@H](CC(N)=O)NC(=O)[C@@H](NC(=O)[C@H](Cc1ccc(Cl)cc1)NC(=O)[C@@H](NC(=O)[C@H](C)NC(=O)[C@H](CC(=O)O)NC(=O)[C@@H](CCCNC(=N)N)NC(=O)[C@H](CCC(=O)O)NC(=O)CI)[C@@H](C)CC)[C@@H](C)O)C(C)C)[C@@H](C)CC)C(=O)N[C@@H](CO)C(=O)N[C@@H](CCCNC(=N)N)C(N)=O [Peptide 8] (X2-E[dR]DAI[Phe(4-Cl)]TNSYRKVL[Abu]QLSARKLLQDI[Nle]SR-NH2)
5 | 0.87 ± 0.1 nM | CCCC[C@H](NC(=O)[C@@H](NC(=O)[C@H](CC(=O)O)NC(=O)[C@H](CCC(N)=O)NC(=O)[C@H](CC(C)C)NC(=O)[C@H](CC(C)C)NC(=O)[C@H](CCCCN)NC(=O)[C@H](CCCNC(=N)N)NC(=O)[C@H](C)NC(=O)[C@H](CO)NC(=O)[C@H](CC(C)C)NC(=O)[C@H](CCC(N)=O)NC(=O)[C@H](CC)NC(=O)[C@H](CC(C)C)NC(=O)[C@@H](NC(=O)[C@H](CCCCN)NC(=O)[C@H](CCCNC(=N)N)NC(=O)[C@H](Cc1ccc(O)cc1)NC(=O)[C@H](CO)NC(=O)[C@H](CC(N)=O)NC(=O)[C@@H](NC(=O)[C@H](Cc1ccc(Cl)cc1)NC(=O)[C@@H](NC(=O)[C@H](C)NC(=O)[C@H](CC(=O)O)NC(=O)[C@@H](CCCNC(=N)N)NC(=O)[C@H](CCC(=O)O)NC(=O)Cc1cccc2ccccc12)[C@@H](C)CC)[C@@H](C)O)C(C)C)[C@@H](C)CC)C(=O)N[C@@H](CO)C(=O)N[C@@H](CCCNC(=N)N)C(N)=O [Peptide 9] ({Acetyl(1-naphthyl)}-E[dR]DAI[Phe(4-Cl)]TNSYRKVL[Abu]QLSARKLLQDI[Nle]SR-NH2)
6 | 0.3 ± 0.15 nM | CCCC[C@H](NC(=O)[C@@H](NC(=O)[C@H](CC(=O)O)NC(=O)[C@H](CCC(N)=O)NC(=O)[C@H](CC(C)C)NC(=O)[C@H](CC(C)C)NC(=O)[C@H](CCCCN)NC(=O)[C@H](CCCNC(=N)N)NC(=O)[C@H](C)NC(=O)[C@H](CO)NC(=O)[C@H](CC(C)C)NC(=O)[C@H](CCC(N)=O)NC(=O)[C@H](CC)NC(=O)[C@H](CC(C)C)NC(=O)[C@@H](NC(=O)[C@H](CCCCN)NC(=O)[C@H](CCCNC(=N)N)NC(=O)[C@H](Cc1ccc(O)cc1)NC(=O)[C@H](CO)NC(=O)[C@H](CC(N)=O)NC(=O)[C@@H](NC(=O)[C@@H]1Cc2c([nH]c3ccccc23)CN1C(=O)[C@@H](NC(=O)[C@H](C)NC(=O)[C@H](CC(=O)O)NC(=O)[C@@H](CCCNC(=N)N)NC(=O)CCCC(=O)O)[C@@H](C)CC)[C@@H](C)O)C(C)C)[C@@H](C)CC)C(=O)N[C@@H](CO)C(=O)N[C@@H](CCCNC(=N)N)C(N)=O [Peptide 12, [Glt^1,D-Arg^2,Tpi^6,Abu^15,Nle^27]hGH-RH(1-29)NH2] (Glutaryl-[dR]DAI[Tpi]TNSYRKVL[Abu]QLSARKLLQDI[Nle]SR-NH2)
7 | 0.78 ± 0.06 nM | CCCC[C@H](NC(=O)[C@@H](NC(=O)[C@H](CC(=O)O)NC(=O)[C@H](CCC(N)=O)NC(=O)[C@H](CC(C)C)NC(=O)[C@H](CC(C)C)NC(=O)[C@H](CCCCN)NC(=O)[C@H](CCCNC(=N)N)NC(=O)[C@H](C)NC(=O)[C@H](CO)NC(=O)[C@H](CC(C)C)NC(=O)[C@H](CCC(N)=O)NC(=O)[C@H](CC)NC(=O)[C@H](CC(C)C)NC(=O)[C@@H](NC(=O)[C@H](CCCCN)NC(=O)[C@H](CCCNC(=N)N)NC(=O)[C@H](Cc1ccc(O)cc1)NC(=O)[C@H](CO)NC(=O)C(C)(C)NC(=O)[C@@H](NC(=O)[C@H](Cc1ccccc1)NC(=O)[C@@H](NC(=O)[C@H](C)NC(=O)[C@H](CC(=O)O)NC(=O)[C@@H](CCCNC(=N)N)NC(=O)[C@H](Cc1ccc(O)cc1)NC(=O)C(C)C)[C@@H](C)CC)[C@@H](C)O)C(C)C)[C@@H](C)CC)C(=O)N[C@@H](CO)C(=O)N[C@@H](CCCNC(=N)N)C(N)=O [Peptide 13, [Ibu^0,D-Arg^2,Aib^8,Abu^15,Nle^27]hGH-RH(1-29)NH2] (Isobutyryl-Y[dR]DAIFT[Aib]SYRKVL[Abu]QLSARKLLQDI[Nle]SR-NH2)
